Data as given in paper PMC12430362, “Comparative Study of Ni(II) Complexes with Dithiocarbazate- and Thiosemicarbazone-Based Ligands: Synthesis, Crystal Structures, and Anticancer Activity” (Molecules, 2025).
pIC50: −log10 of the molar value.

Tests used:
Type in all cases: cell-based, human
[1] = tested on: cisplatin-resistant ovarian cancer (A2780cis) cell line; test: MTT cytotoxicity assay, A2780cis; settings: 48 h, ± SD, 1.56-200 µM
Method: (§1) DMSO solutions (10^−3 M) of the complexes (1–4) were subjected to molar conductance measurements at room temperature over 48 h, and the observed values are presented in Table S8. […] A comparative cytotoxicity assay explored the differences between nickel(II) complexes derived from thiosemicarbazone and dithiocarbazate ligands. Additionally, we investigated the influence of the coligands triphenylphosphine and pyridine in the complexes. The effectiveness of the compounds in inhibiting cell viability was concentration- and time-dependent. The analysis involved varying concentrations between 1.56 and 200 µM over 48 h using an MTT assay, with untreated cells serving as the control. Table 5 presents the IC50 values for the free ligands, synthesized complexes, and cisplatin, which served as reference compounds in this study.
(§2) The cytotoxic activity of the synthesized compounds was evaluated against human cell lines, including breast cancer (MCF–7), cisplatin-resistant ovarian cancer (A2780cis), lung cancer (A549), and nontumor lung cells (MRC–5). The A549 and MRC-5 cell lines were cultured in Dulbecco’s Modified Eagle’s Medium (DMEM), while the MCF-7 and A2780cis cell lines were cultured in Roswell Park Memorial Institute (RPMI–1640). Both cultures were supplemented with 10% fetal bovine serum (FBS), penicillin (100 IU/mL), streptomycin ([…]), and L-glutamine (2 mM). The cells were grown as monolayers in disposable 25 cm^2 flasks and incubated at 37 °C in a humidified atmosphere containing 5% CO2.
(§3) The cytotoxicity activity of the compounds was assessed using a colorimetric MTT (3-(4,5-dimethylthiazol-2-yl)-2,5-diphenyltetrazolium bromide) assay. The cells were trypsinized, counted, and adjusted to the appropriate concentration and were seeded into 96-well plates at a density of 1.5 × 10^4 cells/well. […] The absorbance was measured at 570 nm using a Varioskan LUX Multimode Microplate Reader (VL000D0, Waltham, MA 02451, USA). […] The half-maximal inhibitory concentration (IC50) values were determined from dose–response curves using GraphPad Prism version 8 software.

[2] = tested on: breast cancer (MCF-7) cell line; test: MTT cytotoxicity assay, MCF-7; settings: ± SD, 1.56-200 µM
Method: as §1, §2, §3

[3] = tested on: lung cancer (A549) cell line; test: MTT cytotoxicity assay, A549; settings: ± SD, 1.56-200 µM
Method: as §1, §2, §3

[4] = tested on: nontumoral lung (MRC-5) cell line; test: MTT cytotoxicity assay, MRC-5; settings: ± SD, 1.56-200 µM, nontumoral cells
Method: as §1, §2, §3

Row | SMILES | pIC50 [1] | pIC50 ([2]; 48 h) | pIC50 ([3]; 48 h) | pIC50 ([4]; 48 h) | pIC50 ([1]; Homo sapiens, A2780cis) | pIC50 ([2]; Homo sapiens, MCF7, 48 h) | pIC50 ([3]; Homo sapiens, A549, 48 h) | pIC50 ([4]; Homo sapiens, MRC5, 48 h)
1 | N.N.[Cl][Pt][Cl] [Cisplatin, cisplatin, reference compound] | 4.43 | 4.85 | 4.94 | 4.54 | – | – | – | –
2 | O=C(C/C(=N/NC(=S)Nc1ccccc1)C(F)(F)F)c1cccs1 [H2L^1, thenoyltrifluoroacetone–4–phenyl–3–thiosemicarbazone] | – | – | – | – | 4.37 | < 4.00 | 4.29 | < 4.00
3 | O=C(C/C(=N/NC(=S)SCc1ccccc1)C(F)(F)F)c1cccs1 [H2L^2, thenoyltrifluoroacetone–S–benzyldithiocarbazate] | – | – | – | – | 4.10 | < 4.00 | < 4.00 | < 4.00
